System: Shewanella putrefaciens
Test: Inhibitory effect of CO2 on growth and spoilage causing ability, inoculated fillets in modified atmosphere packaging
Conditions: stored in the presence of CO2, versus control group
Experimental: Pre-frozen Shewanella putrefaciens (stored at −80° C. or less) was thawed at 30±2° C., inoculated to 5-10 mL of TSB, and cultured under shaking for 12 h to obtain a primary culture solution.
The primary culture solution was inoculated into another TSB liquid medium at an inoculation amount of 1% by weight, which was cultured under shaking for 6 h to obtain a bacterial suspension with a concentration of 10^7 CFU/mL.
A large yellow croaker with a weight of 1000±50 g was processed, and cut into a plurality of 100-g slices, which were washed with 0-4° C. water, and dried to prepare a plurality of samples. The large yellow croaker was oxygenated in a foam box during the transportation, and processed by bloodletting, evisceration, and head removal.
The samples were immersed into a 75% ethanol solution for 30 s, washed with sterile distilled water 3 times, and subjected to ultraviolet sterilization for 20 min to obtain a plurality of sterilized samples, where a mass ratio of the ethanol solution to the samples was 3:1. The bacterial suspension was diluted to a concentration of 10^4 CFU/mL, and inoculated to the sterilized samples to obtain a plurality inoculated samples, where the diluted bacterial suspension was 10% by weight of each sterilized sample such that a bacterial concentration of each sterilized sample was lower than or equal to 10^5 CFU/mL. […]

## O=C=O [CO2, carbon dioxide]
  Growth and reproduction rate of the Shewanella putrefaciens: significantly lower than that of the control group
